Data taken from US20250361230A1, “LATS Inhibitors and Uses Thereof” (The USA, as Represented by the Secretary, Dept. of Heath …, priority 2022, published 2025).
Like-named read-outs stand apart in the source and are kept apart here.

Tests used:
Type in all cases: biochemical
[1] = molecular target: T1, LATS1 (Homo sapiens, UniProt O95835); assay: RBC HotSpot kinase assay (33P-ATP, P81 filter-binding), LATS1
T1 sequence (O95835 1-1130): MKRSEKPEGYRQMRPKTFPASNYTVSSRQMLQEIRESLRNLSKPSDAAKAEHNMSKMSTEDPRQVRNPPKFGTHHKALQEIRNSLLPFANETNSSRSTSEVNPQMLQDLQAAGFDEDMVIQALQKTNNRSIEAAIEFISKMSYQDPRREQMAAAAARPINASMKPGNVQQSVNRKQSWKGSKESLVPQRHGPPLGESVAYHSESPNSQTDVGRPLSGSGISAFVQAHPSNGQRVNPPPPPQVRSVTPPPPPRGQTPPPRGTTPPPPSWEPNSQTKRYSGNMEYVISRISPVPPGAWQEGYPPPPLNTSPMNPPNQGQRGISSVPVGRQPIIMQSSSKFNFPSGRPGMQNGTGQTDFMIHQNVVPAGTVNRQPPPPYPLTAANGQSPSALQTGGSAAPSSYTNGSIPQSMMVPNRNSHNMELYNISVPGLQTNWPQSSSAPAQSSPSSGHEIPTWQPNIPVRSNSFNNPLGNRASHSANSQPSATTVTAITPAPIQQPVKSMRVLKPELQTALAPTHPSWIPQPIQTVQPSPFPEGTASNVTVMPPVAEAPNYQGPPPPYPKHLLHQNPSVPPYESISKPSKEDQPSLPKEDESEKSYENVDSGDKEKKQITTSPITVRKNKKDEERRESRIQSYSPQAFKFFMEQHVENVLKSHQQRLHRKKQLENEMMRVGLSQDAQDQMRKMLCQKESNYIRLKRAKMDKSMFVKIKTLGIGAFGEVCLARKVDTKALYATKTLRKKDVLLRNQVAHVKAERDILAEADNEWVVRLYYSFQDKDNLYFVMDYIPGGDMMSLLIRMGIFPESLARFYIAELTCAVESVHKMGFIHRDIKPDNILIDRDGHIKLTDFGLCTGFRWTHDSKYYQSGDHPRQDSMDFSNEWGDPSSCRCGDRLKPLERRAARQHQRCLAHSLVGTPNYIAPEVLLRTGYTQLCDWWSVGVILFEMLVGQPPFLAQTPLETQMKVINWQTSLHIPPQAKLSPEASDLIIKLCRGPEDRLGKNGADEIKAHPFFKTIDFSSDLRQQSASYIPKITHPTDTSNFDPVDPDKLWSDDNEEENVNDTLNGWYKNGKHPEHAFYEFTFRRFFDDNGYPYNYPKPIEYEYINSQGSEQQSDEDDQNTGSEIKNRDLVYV
Outline: (§1)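 Hepes pH 7.5/MgCl2/EGTA/Brij35/BSA/Na3VO4/DTT buffer, cofactors per kinase; cpd acoustically dispensed, 20 min preinc RT; start w/ 33P-ATP, 2 h RT; P81 filter readout; 10-pt singlet IC50.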

[2] = molecular target: T2, LATS2 (Homo sapiens, UniProt Q9NRM7); assay: RBC HotSpot kinase assay (33P-ATP, P81 filter-binding), LATS2
T2 sequence (Q9NRM7 1-1088): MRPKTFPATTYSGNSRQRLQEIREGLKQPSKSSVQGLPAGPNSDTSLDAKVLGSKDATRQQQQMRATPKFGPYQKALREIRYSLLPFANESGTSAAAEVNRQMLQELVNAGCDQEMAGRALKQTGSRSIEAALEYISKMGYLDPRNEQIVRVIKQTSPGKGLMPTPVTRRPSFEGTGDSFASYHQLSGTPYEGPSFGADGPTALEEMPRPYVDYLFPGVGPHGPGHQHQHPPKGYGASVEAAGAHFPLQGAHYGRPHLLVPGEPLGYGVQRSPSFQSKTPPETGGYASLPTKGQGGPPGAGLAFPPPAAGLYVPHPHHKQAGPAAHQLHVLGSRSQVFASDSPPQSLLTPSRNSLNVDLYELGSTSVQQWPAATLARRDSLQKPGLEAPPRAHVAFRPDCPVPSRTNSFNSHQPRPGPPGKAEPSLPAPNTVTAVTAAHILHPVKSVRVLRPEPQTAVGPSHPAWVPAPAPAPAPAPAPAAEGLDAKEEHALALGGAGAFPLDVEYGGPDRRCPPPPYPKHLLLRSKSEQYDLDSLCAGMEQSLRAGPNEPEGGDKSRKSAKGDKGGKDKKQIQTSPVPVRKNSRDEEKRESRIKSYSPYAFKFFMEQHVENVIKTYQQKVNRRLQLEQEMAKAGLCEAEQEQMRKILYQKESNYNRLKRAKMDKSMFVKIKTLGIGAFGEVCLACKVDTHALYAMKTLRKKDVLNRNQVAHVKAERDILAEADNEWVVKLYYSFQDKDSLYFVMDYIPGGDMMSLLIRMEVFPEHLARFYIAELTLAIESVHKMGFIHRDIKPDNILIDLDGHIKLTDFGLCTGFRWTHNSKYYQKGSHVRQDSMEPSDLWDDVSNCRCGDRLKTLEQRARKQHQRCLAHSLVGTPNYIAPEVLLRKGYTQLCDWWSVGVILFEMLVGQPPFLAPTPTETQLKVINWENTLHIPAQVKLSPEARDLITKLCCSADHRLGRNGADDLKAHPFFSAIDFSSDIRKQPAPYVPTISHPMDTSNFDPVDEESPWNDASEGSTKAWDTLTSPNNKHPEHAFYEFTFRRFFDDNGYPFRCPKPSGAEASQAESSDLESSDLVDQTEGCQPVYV
Outline: as §1

[3] = molecular target: AKT (Homo sapiens, UniProt P31749); assay: RBC HotSpot kinase assay (33P-ATP, P81 filter-binding), AKT
Chain of AKT (P31749 whole entry): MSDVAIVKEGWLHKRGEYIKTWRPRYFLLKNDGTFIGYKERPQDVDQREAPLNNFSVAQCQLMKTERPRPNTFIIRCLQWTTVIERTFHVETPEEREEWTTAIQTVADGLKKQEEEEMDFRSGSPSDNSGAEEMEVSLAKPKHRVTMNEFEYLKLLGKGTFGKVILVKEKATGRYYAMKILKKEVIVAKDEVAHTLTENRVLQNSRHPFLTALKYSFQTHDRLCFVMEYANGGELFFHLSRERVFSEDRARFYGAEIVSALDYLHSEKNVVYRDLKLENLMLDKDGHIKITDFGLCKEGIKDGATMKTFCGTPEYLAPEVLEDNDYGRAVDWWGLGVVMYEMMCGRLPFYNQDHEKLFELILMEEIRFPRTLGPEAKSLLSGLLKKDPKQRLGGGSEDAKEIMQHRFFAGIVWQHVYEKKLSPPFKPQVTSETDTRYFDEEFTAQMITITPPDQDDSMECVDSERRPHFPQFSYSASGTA
Outline: as §1

[4] = Table 28, biochemical kinase assay, read-out: LATS1 IC50
[5] = Table 28, biochemical kinase assay, read-out: LATS2 IC50
[6] = Table 28, biochemical kinase assay, read-out: AKT IC50

Row | SMILES | IC50 [1, 4] [nM] | IC50 [2, 5] [nM] | IC50 [3, 6] [nM] | IC50 [1] [nM] | IC50 [2] [nM] | IC50 [3] [nM]
1 | Fc1c[nH]c2nccc(-c3ccc(C4(c5nnco5)CCNCC4)cc3)c12 [Compound 191, 2-(4-(4-(3-fluoro-1H-pyrrolo[2,3-b]pyridin-4-yl)phenyl)piperidin-4-yl)-1,3,4-oxadiazole] | 57 | 43 | 200 |  |  | 
2 | Cc1cnc(C2(c3ccc(-c4ccnc5[nH]cc(F)c45)cc3)CCNCC2)o1 [Compound 192, 2-(4-(4-(3-fluoro-1H-pyrrolo[2,3-b]pyridin-4-yl)phenyl)piperidin-4-yl)-5-methyloxazole] | 29 | 20 | 25 |  |  | 
3 | COC(=O)C1(c2ccc(-c3ccnc4[nH]cc(F)c34)cc2)CCN(C)CC1 [Compound 193, Methyl 4-(4-(3-fluoro-1H-pyrrolo[2,3-b]pyridin-4-yl)phenyl)-1-methylpiperidine-4-carboxylate] |  |  |  | 53 | 26 | 128
4 | O=C(O)C1(c2ccc(-c3ccnc4[nH]cc(F)c34)cc2)CCNCC1 [Compound 194, 4-(4-(3-fluoro-1H-pyrrolo[2,3-b]pyridin-4-yl)phenyl)piperidine-4-carboxylic acid] | > 10000 | > 10000 | > 10000 |  |  | 
5 | Cc1nnc(C2(c3ccc(-c4ccnc5[nH]cc(F)c45)cc3)CCN(C(=O)OC(C)(C)C)CC2)o1 [Compound 195, tert-butyl 4-(4-(3-fluoro-1H-pyrrolo[2,3-b]pyridin-4-yl)phenyl)-4-(5-methyl-1,3,4-oxadiazol-2-yl)piperidine-1-carboxylate] | 5790 | 3520 | > 10000 |  |  | 
6 | CC(C)(C)OC(=O)N1CCC(c2ccc(-c3ccnc4[nH]cc(F)c34)cc2)(c2nnco2)CC1 [Compound 196, tert-butyl 4-(4-(3-fluoro-1H-pyrrolo[2,3-b]pyridin-4-yl)phenyl)-4-(1,3,4-oxadiazol-2-yl)piperidine-1-carboxylate] | > 10000 | > 10000 | > 10000 |  |  | 
7 | Fc1c[nH]c2nccc(-c3ccc(C4(C(F)(F)F)CCNCC4)cc3Cl)c12 [Compound 197, 4-(2-chloro-4-(4-(trifluoromethyl)piperidin-4-yl)phenyl)-3-fluoro-1H-pyrrolo[2,3-b]pyridine] | 424 | 195 | 85 |  |  | 
8 | COC(=O)C1(c2ccc(-c3ccnc4[nH]cc(F)c34)cc2Cl)CCNCC1 [Compound 198, methyl 4-(2-chloro-4-(3-fluoro-1H-pyrrolo[2,3-b]pyridin-4-yl)phenyl)piperidine-4-carboxylate] | 7.4 | 10 | 124 |  |  | 

Second part, led by results:

Row | IC50 [1, 4] [nM] | IC50 [2, 5] [nM] | IC50 [3, 6] [nM] | SMILES | IC50 [1] [nM] | IC50 [2] [nM] | IC50 [3] [nM]
9 | 38 | 34 | 463 | CCC1(c2ccc(-c3ccnc4[nH]cc(F)c34)cc2Cl)CCNCC1 [Compound 199, 4-(3-chloro-4-(4-ethylpiperidin-4-yl)phenyl)-3-fluoro-1H-pyrrolo[2,3-b]pyridine] |  |  | 
10 | 34 | 20 | 12 | CC1(c2ccc(-c3ccnc4[nH]cc(F)c34)cc2Cl)CCNCC1 [Compound 200, 4-(3-chloro-4-(4-methylpiperidin-4-yl)phenyl)-3-fluoro-1H-pyrrolo[2,3-b]pyridine] |  |  | 
11 | 17 | 7 | 743 | CC(C)c1cc(-c2ccnc3[nH]cc(-c4ccccc4)c23)ccc1CN [Compound 202, (2-isopropyl-4-(3-phenyl-1H-pyrrolo[2,3-b]pyridin-4-yl)phenyl)methanamine] |  |  | 
12 | 70.3 | 135 | 1380 | CC(C)(C)Nc1cc(-c2ccnc3[nH]ccc23)ccc1CN [Compound 203, 2-(aminomethyl)-N-(tert-butyl)-5-(1H-pyrrolo[2,3-b]pyridin-4-yl)aniline] |  |  | 
13 | 15.9 | 33.1 | 1430 | Fc1ccccc1CNCc1ccc(-c2ccnc3[nH]ccc23)cc1 [Compound 204, N-(4-(1H-pyrrolo[2,3-b]pyridin-4-yl)benzyl)-1-(2-fluorophenyl)methanamine] |  |  | 
